We go through 1 compound from US7261906B2, “Anti-cancer therapy agent of arsenic hexoxide (As4O6) of a natural chemical substance and its pharmaceutical composition” (priority 1998, dated 2007).

In one experiment the test system is 3T3-fibroblast cells. In words: Cytotoxicity in 3T3-fibroblast cells, time course (XTT method). The format is cell-based, murine. As for the experimental part: Cloned tumor cells of P388 leukemia, L1210 leukemia, L5178Y lymphoma, Colon26-M3.1 carcinoma, and B16-BL6 melanoma, from mice, and K562 leukemia, liver carcinoma HEP-G2, Hs578T breast cancer, AN-3-CA adenocarcinoma, DLD colon carcinoma, and HeLa epitheloid carcinoma, from human beings, were cultured in EMM, DMEM, or RMPI-1640 culture media containing 7.5% fetal bovine serum (FBS), as described in ATCC manual. […] Tumor cells in test wells were incubated in 5% CO2 incubator at 37° C. for 2 days.
For further study of the cytotoxicity of each substance on cloned tumor cells, 3T3-fibroblast cells were cultured in test wells as described in experiment 1.
(Tetrazolium assays rely on reduction of a dye to a coloured formazan, in cell work by metabolically active cells.)

Experiment [1] deals with colon26-M3.1 carcinoma cells. In words: Inhibitory effect of intravenously-administered HD-2 on cancer metastasis (lung). Format: in vivo, mice. As for the experimental part: B16-BL6 melanoma cells or colon26-M3.1 carcinoma cells were inoculated into mice and number of metastatic tumor masses appearing in lungs was counted. […] The peak activity was observed a: 1-mg dose with very high anticancer efficacy (86%). […] This indicated oral administration of HD-2 was quite effective for treatment of established cancer.
In this experiment, HD-2 was administered intravenously with dosage less than 500 mg/kg body weight per day.

Where [2] appears, read: 1 μg intravenous administration +1.
[3] abbreviates: 10 μg intravenous administration +1.
[4] abbreviates: 10 μg intravenous administration +7.
The mark [5] stands for this setting: 100 μg intravenous administration +1.

The structures appear in SMILES notation.

In the case of `N.N.[Cl][Pt][Cl]` [cisplatin, reference compound], in the experiment on 3T3-fibroblast cells (3T3, 34 hours of treatment), the “morphological observation of cells” value is on record as “partial necrosis of tumor cells or slowing of tumor growth”. The tumor growth result in the experiment with 3T3-fibroblast cells (3T3, after 24 hours of administration) is “partial inhibition of tumor growth”. The inhibitory rate in experiment [1] (setting [2]) is given as 34.2%; in experiment [1] (setting [3]), 87.1%; in experiment [1] (setting [4]), 50.0%; in experiment [1] (setting [5]), 63.2%. Further, the “number of metastatic mass, mean ± SD” value in experiment [1] (setting [2]) came out at 102 ± 28; in experiment [1] (setting [3]), 20 ± 13; in experiment [1] (setting [4]), 77 ± 12; in experiment [1] (setting [5]) it was 57 ± 22.
